From US20230285402A1, “Compositions and Methods of Modulating Short-Chain Dehydrogenase Activity” (BOARD OF REGENTS OF THE UNIVERSITY OF TEXAS SYSTEM, priority 2013, published 2023)

How the values were obtained:
recombinant 15-PGDH [1] = target: T1, recombinant 15-PGDH (Homo sapiens (Human), UniProt P15428); test: Inhibition of enzymatic activity of recombinant 15-PGDH in vitro (NADH generation); assay type: biochemical
[2] = test system: 15-PGH-luciferase fusion protein reporter in the Vaco-9M (V9M) cell line; test: 15-PGDH-luciferase fusion reporter induction in V9M cells; assay type: cell-based
Method: Some residual activity is seen for isomer B when added at 3.2 μM concentration. The small residual activity of isomer A may be due to possible 3% contamination with some residual isomer B.

recombinant 15-PGDH [3] = target: T1, recombinant 15-PGDH; test: Melting temperature shift of recombinant 15-PGDH (SYPRO Orange); assay type: binding; conditions: Differential Scanning Fluorimetry; shifted from 50.5
[4] = Stability with human liver extracts; assay type: in vitro ADME
[5] = test system: PGE2 in colon, bone marrow, liver, lung; test: PGE2 in mouse tissues after IP injection; assay type: in vivo
Method: Shown is measurement by Elisa of PGE2 (ng PGE2/mg of tissue protein) from 4 mouse tissues: lung, liver, colon and bone marrow. […] Tissues were harvested for PGE2 assay at either 2 hour (2 h) or 3 hour (3 h) time points following drug injection.

[6] = Stability with rat liver extracts; assay type: in vitro ADME
[7] = Stability with mouse liver extracts; assay type: in vitro ADME
[8] = Chemical stability in aqueous solutions; assay type: physicochemical; conditions: broad pH range
mice [9] = test: Immediate toxicity after IP injection into mice; assay type: in vivo; conditions: over 24 hours; 50 mg/kg body weight IP
mice [10] = test: Homing of CFSE labeled donor bone marrow cells in lethally irradiated mice; assay type: in vivo, mouse; conditions: 10 mg/kg body weight
Method: Drugs are administered following radiation, following the transplant, and again at 8 hours after the transplant.

T1 sequence (P15428 whole entry, the tested form may be a part): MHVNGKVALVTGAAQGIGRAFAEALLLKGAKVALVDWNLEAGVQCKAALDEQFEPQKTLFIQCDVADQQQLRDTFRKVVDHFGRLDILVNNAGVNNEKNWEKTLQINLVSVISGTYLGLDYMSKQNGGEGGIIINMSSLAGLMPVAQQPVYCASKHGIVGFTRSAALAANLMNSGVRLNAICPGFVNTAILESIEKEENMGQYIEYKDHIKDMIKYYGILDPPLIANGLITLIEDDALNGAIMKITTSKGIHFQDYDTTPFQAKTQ

Compound: CCCC[S@](C)(O)c1sc2nc(-c3cccs3)cc(-c3ccccc3)c2c1N [SW033291 isomer B]
- IC50 lower than the parent racemic mixture (recombinant 15-PGDH [1]; vs racemic SW033291): 40%
- concentration for full activity [2]: 0.1 µM
- melting temperature (recombinant 15-PGDH [3]): 68 °C

Compound: CCCC[S+]([O-])c1sc2nc(-c3nccs3)cc(-c3cnc(C)n3C)c2c1N (stereo not drawn) [formula (XIII)]
- stability when incubated with liver extracts [4]: chemically stable
- PGE2 levels in the colon, lung, liver and bone marrow ([5]; IP dose of 10 mg/kg body weight): elevates PGE2 levels
- concentration that inhibits recombinant 15-PGDH (recombinant 15-PGDH [1]; enzyme concentration approximately 6 nM): 3 nM
- stability when incubated with liver extracts [6]: chemically stable
- stability when incubated with liver extracts [7]: chemically stable
- chemical stability in aqueous solutions [8]: chemically stable
- immediate toxicity (mice [9]): no immediate toxicity
- homing of hematopoietic stem cells following bone marrow transplantation (mice [10]): increases homing

Compound: (+) SW209415
- time of peak PGE2 ([5]; after IP injection): 3 h
